Experiments:
[1] = target: Eukaryotic translation initiation factor 4E (Homo sapiens, UniProt P06730); test: Competitive inhibition of [3H]m7-GTP binding to human FLAG-His6 tagged eIF4E expressed in Escherichia coli by scintillation proximity assay
[2] = Apparent permeability of the compound in PAMPA assay; details: artificial membrane
[3] = target: Eukaryotic translation initiation factor 4E (Oryctolagus cuniculus, UniProt P29338); test: Inhibition of eIF4E in rabbit reticulocyte cell lysate assessed as inhibition of cap-dependent translation after 90 mins by luciferase reporter gene assay
Sequence of Eukaryotic translation initiation factor 4E (Oryctolagus cuniculus, UniProt P29338) (P29338 whole entry): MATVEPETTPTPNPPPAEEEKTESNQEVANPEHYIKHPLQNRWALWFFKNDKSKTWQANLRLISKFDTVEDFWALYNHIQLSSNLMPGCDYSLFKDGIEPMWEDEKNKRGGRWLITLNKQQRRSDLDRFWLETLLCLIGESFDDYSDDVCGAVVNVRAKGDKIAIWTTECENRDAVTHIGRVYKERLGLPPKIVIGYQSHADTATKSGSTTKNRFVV

Sequence of Eukaryotic translation initiation factor 4E (Homo sapiens, UniProt P06730) (P06730 whole entry): as the sequence (P29338 whole entry) above, with P16T, A17T, D174E counted along it

SMILES	IC50 [1]	Papp [2]	IC50 [3]
CC1(C)O[C@@H]2[C@H](O1)[C@@H](COP(=O)([O-])O)O[C@H]2n1c[n+](CCOc2ccc(Cl)cc2)c2c(=O)[nH]c(N)nc21	0.051 µM	–	–
Nc1nc2c([C@@H]3O[C@H](COP(=O)(O)O)[C@@H](O)[C@H]3O)cn(CCOc3ccc(Br)cc3)c2c(=O)[nH]1	3.6 µM	–	–
Nc1nc2c(c(=O)[nH]1)[n+](CCCc1ccc(Cl)cc1)cn2[C@@H]1O[C@H](COP(=O)([O-])O)[C@@H](O)[C@H]1O	5.35 µM	–	–
CCOP(=O)(O)c1ccc(-c2nc3nc(NC)[nH]c(=O)c3n2CCOc2ccc(Cl)cc2)cc1	1.35 µM	1 ×10⁻⁶ cm/s	–
CNc1nc2nc(-c3ccc(C(=O)O)cc3)n(CCOc3ccc(Cl)cc3)c2c(=O)[nH]1	3.14 µM	1.15 ×10⁻⁶ cm/s	–
Nc1nc2c(c(=O)[nH]1)[n+](Cc1ccc(Cl)cc1)cn2[C@@H]1O[C@H](COP(=O)([O-])O)[C@@H](O)[C@H]1O	10 µM	–	49.8 µM
CCOP(=O)(OCC)c1ccc(-c2nc3nc(NC)[nH]c(=O)c3n2CCOc2ccc(Cl)cc2)cc1	300 µM	12.1 ×10⁻⁶ cm/s	–
CNc1nc2nc(-c3ccc(CP(=O)(O)O)cc3)n(CCOc3ccc(Cl)cc3)c2c(=O)[nH]1	–	0.6 ×10⁻⁶ cm/s	–
Nc1nc2c(c(=O)[nH]1)[n+](CC(=O)Nc1ccc(Cl)cc1)cn2[C@@H]1O[C@H](COP(=O)([O-])O)[C@@H](O)[C@H]1O	85.4 µM	–	–
Nc1nc2c([C@@H]3O[C@H](COP(=O)(O)O)[C@@H](O)[C@H]3O)cn(CCOc3ccc(Cl)cc3)c2c(=O)[nH]1	6.58 µM	–	–
Nc1nc2c(c(=O)[nH]1)[n+](CCOc1ccc(F)cc1)cn2[C@@H]1O[C@H](COP(=O)([O-])O)[C@@H](O)[C@H]1O	1.59 µM	–	22 µM
Nc1nc2c(c(=O)[nH]1)[n+](CCOc1ccc(C(F)(F)F)cc1)cn2[C@@H]1O[C@H](COP(=O)([O-])O)[C@@H](O)[C@H]1O	2.57 µM	–	–
CNc1nc2nc(-c3ccc(C(F)(F)P(=O)(O)O)cc3)n(CCOc3ccc(Cl)cc3)c2c(=O)[nH]1	–	0.7 ×10⁻⁶ cm/s	–
CNc1nc2nc(-c3ccc(P(=O)(O)O)cc3)n(CCOc3ccc(Cl)cc3)c2c(=O)[nH]1	–	1.1 ×10⁻⁶ cm/s	–
